What all share (type): in vivo
The test system of one experiment is Setaria faberi (SETFA). Briefly: Post-emergence Test, Setaria faberi (SETFA). Also on record: key to percentage damage caused to the plant, SETFA (five-point scale): 5=81-100%, 4=61-80%, 3=41-60%, 2=21-40%, 1=0-20% damage. The conditions noted are these: 1000 g/ha, evaluated after 13 days. The method, boiled down:
(§1)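 Application was a spray of acetone/water (50:50) with 0.5% Tween 20 onto pots of test species sown in standard soil. Unless otherwise stated, the rate was 1000 g/ha. After 13 days under glasshouse conditions (24/16 °C, 65% humidity), injury was scored from 1 (0-20%) to 5 (81-100%).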

Experiment [1] concerns Echinochloa crus-galli (ECHCG). As to the kind of experiment: Post-emergence Test, Echinochloa crus-galli (ECHCG). Also on record: key to percentage damage caused to the plant, ECHCG (five-point scale): 5=81-100%, 4=61-80%, 3=41-60%, 2=21-40%, 1=0-20% damage. As to conditions: evaluated after 13 days; for Post-emergence Test ECHCG, percentage damage caused to the plant (five-point scale): 250 g/Ha (*). An outline of the steps:
as §1

The next experiment deals with Zea mays (ZEAMX). As to the kind of experiment: Post-emergence Test, Zea mays (ZEAMX). Also on record: key to percentage damage caused to the plant, ZEAMX (five-point scale): 5=81-100%, 4=61-80%, 3=41-60%, 2=21-40%, 1=0-20% damage. The conditions noted are these: evaluated after 13 days. The method, boiled down:
as §1

In experiment [2] the test system is Ipomoea hederacea (IPOHE). Briefly: Post-emergence Test, Ipomoea hederacea (IPOHE). Further details: key to percentage damage caused to the plant, IPOHE (five-point scale): 5=81-100%, 4=61-80%, 3=41-60%, 2=21-40%, 1=0-20% damage. The conditions noted are these: evaluated after 13 days. An outline of the steps: as §1
Experiment [3] has as its system Amaranthus palmeri (AMAPA). As to the kind of experiment: Post-emergence Test, Amaranthus palmeri (AMAPA). Also on record: key: 5=81-100%, 4=61-80%, 3=41-60%, 2=21-40%, 1=0-20% damage. The conditions noted are these: evaluated after 13 days. The method, boiled down: as §1
Experiment [4] deals with Amaranthus retoflexus (AMARE). As to the kind of experiment: Post-emergence Test, Amaranthus retoflexus (AMARE). Further details: key to percentage damage caused to the plant, AMARE (five-point scale): 5=81-100%, 4=61-80%, 3=41-60%, 2=21-40%, 1=0-20% damage. The conditions noted are these: evaluated after 13 days. The method, boiled down:
as §1

In the case of `CCn1c(C(C)n2ccc(C(F)(F)F)n2)cc(=O)c(C(=O)O)c1-c1ccc(Cl)c(Cl)c1` (stereo not shown) [Compound 172, 2-(3,4-dichlorophenyl)-1-ethyl-4-oxo-6-[1-[3-(trifluoromethyl)pyrazol-1-yl]ethyl]pyridine-3-carboxylic acid], the “percentage damage caused to the plant, SETFA (five-point scale)” value in the experiment on Setaria faberi (SETFA) is recorded as 1 (1=0-20%). For the same molecule, in experiment [1] (250 g/Ha), the “percentage damage caused to the plant, ECHCG (five-point scale)” value is reported as 0. Also, the results for the “percentage damage caused to the plant, ZEAMX (five-point scale)” value with Zea mays (ZEAMX) (250 g/Ha) and in the experiment on Zea mays (ZEAMX) (1000 g/ha) were 0 and 1 (1=0-20%), respectively. The “percentage damage caused to the plant, IPOHE (five-point scale)” value is 0 in experiment [2] (250 g/Ha) and 1 (1=0-20%) in experiment [2] (1000 g/ha). Besides, the “percentage damage caused to the plant, AMAPA (five-point scale)” value is reported as 1 (1=0-20%) in experiment [3] (250 g/Ha) and 2 (2=21-40%) in experiment [3] (1000 g/ha). In addition, the entries for the “percentage damage caused to the plant, AMARE (five-point scale)” value in experiment [4] (250 g/Ha) and in experiment [4] (1000 g/ha) were 1 (1=0-20%) and 2 (2=21-40%), respectively.
In the case of `CCn1c(Cn2nc(C(C)(C)C)cc2C(F)(F)F)cc(=O)c(C(=O)O)c1-c1ccc(Cl)c(Cl)c1` [Compound 181, 6-[[3-tert-butyl-5-(trifluoromethyl)pyrazol-1-yl]methyl]-2-(3,4-dichlorophenyl)-1-ethyl-4-oxo-pyridine-3-carboxylic acid], the “percentage damage caused to the plant, SETFA (five-point scale)” value in the experiment on Setaria faberi (SETFA) is given as 0. Also, the “percentage damage caused to the plant, ECHCG (five-point scale)” value in experiment [1] (250 g/Ha) is given as 1 (1=0-20%). Besides, the “percentage damage caused to the plant, ZEAMX (five-point scale)” value in the experiment with Zea mays (ZEAMX) (250 g/Ha) and with Zea mays (ZEAMX) (1000 g/ha) was 0 in each case. Moreover, the “percentage damage caused to the plant, IPOHE (five-point scale)” value in experiment [2] (250 g/Ha) is given as 0; in experiment [2] (1000 g/ha) it was 1 (1=0-20%). Also, the figures for the “percentage damage caused to the plant, AMAPA (five-point scale)” value in experiment [3] (250 g/Ha) and in experiment [3] (1000 g/ha) were 0 and 1 (1=0-20%), respectively. Further, the “percentage damage caused to the plant, AMARE (five-point scale)” value in experiment [4] (250 g/Ha) is on record as 0; in experiment [4] (1000 g/ha), 1 (1=0-20%).
Turning to `CCn1c(Cn2nc(C(F)(F)F)cc2C2CC2)cc(=O)c(C(=O)O)c1-c1ccc(Cl)c(Cl)c1` [Compound 184, 6-[[5-cyclopropyl-3-(trifluoromethyl)pyrazol-1-yl]methyl]-2-(3,4-dichlorophenyl)-1-ethyl-4-oxo-pyridine-3-carboxylic acid], in the experiment on Setaria faberi (SETFA), the “percentage damage caused to the plant, SETFA (five-point scale)” value was 4 (4=61-80%). The “percentage damage caused to the plant, ECHCG (five-point scale)” value in experiment [1] (250 g/Ha) was 3 (3=41-60%). In addition, the “percentage damage caused to the plant, ZEAMX (five-point scale)” value was 1 (1=0-20%) with Zea mays (ZEAMX) (250 g/Ha) and 3 (3=41-60%) in the experiment with Zea mays (ZEAMX) (1000 g/ha). For the same molecule, the “percentage damage caused to the plant, IPOHE (five-point scale)” value was 1 (1=0-20%) in experiment [2] (250 g/Ha) and 4 (4=61-80%) in experiment [2] (1000 g/ha). Further, the “percentage damage caused to the plant, AMAPA (five-point scale)” value in experiment [3] (250 g/Ha) is given as 1 (1=0-20%); in experiment [3] (1000 g/ha), 3 (3=41-60%). The “percentage damage caused to the plant, AMARE (five-point scale)” value was 1 (1=0-20%) in experiment [4] (250 g/Ha) and 3 (3=41-60%) in experiment [4] (1000 g/ha).
For the molecule `CCOCc1ccnn1Cc1cc(=O)c(C(=O)O)c(-c2ccc(Cl)c(Cl)c2)n1CC` [Compound 188, 2-(3,4-dichlorophenyl)-6-[[5-(ethoxymethyl)pyrazol-1-yl]methyl]-1-ethyl-4-oxo-pyridine-3-carboxylic acid], the “percentage damage caused to the plant, SETFA (five-point scale)” value in the experiment with Setaria faberi (SETFA) amounted to 0. Also, the “percentage damage caused to the plant, ECHCG (five-point scale)” value in experiment [1] (1000 g/ha) was determined as 0. The “percentage damage caused to the plant, ZEAMX (five-point scale)” value with Zea mays (ZEAMX) (1000 g/ha) is on record as 0. The “percentage damage caused to the plant, IPOHE (five-point scale)” value in experiment [2] (1000 g/ha) is recorded as 1 (1=0-20%). Also, the “percentage damage caused to the plant, AMAPA (five-point scale)” value in experiment [3] (1000 g/ha) was 1 (1=0-20%). The “percentage damage caused to the plant, AMARE (five-point scale)” value in experiment [4] (1000 g/ha) amounted to 0.
Consider `CCC(=O)Nc1ccn(Cc2cc(=O)c(C(=O)O)c(-c3ccc(Cl)c(Cl)c3)n2CC)n1` [Compound 192, 2-(3,4-dichlorophenyl)-1-ethyl-4-oxo-6-[[3-(propanoylamino)pyrazol-1-yl]methyl]pyridine-3-carboxylic acid], for which, in the experiment on Setaria faberi (SETFA), the “percentage damage caused to the plant, SETFA (five-point scale)” value turned out to be 0. For the same molecule, the “percentage damage caused to the plant, ECHCG (five-point scale)” value in experiment [1] (1000 g/ha) worked out at 0. Moreover, in the experiment with Zea mays (ZEAMX) (1000 g/ha), the “percentage damage caused to the plant, ZEAMX (five-point scale)” value stood at 0. The “percentage damage caused to the plant, IPOHE (five-point scale)” value in experiment [2] (1000 g/ha) is reported as 0. For the same molecule, in experiment [3] (1000 g/ha), the “percentage damage caused to the plant, AMAPA (five-point scale)” value was 1 (1=0-20%). The “percentage damage caused to the plant, AMARE (five-point scale)” value in experiment [4] (1000 g/ha) was 1 (1=0-20%).
Take `CCn1c(Cn2ccc(-c3ccncc3)n2)cc(=O)c(C(=O)O)c1-c1ccc(Cl)c(Cl)c1` [Compound 195, 2-(3,4-dichlorophenyl)-1-ethyl-4-oxo-6-[[3-(4-pyridyl)pyrazol-1-yl]methyl]pyridine-3-carboxylic acid]: the “Post-emergence Test SETFA, percentage damage caused to the plant (five-point scale)” value in the experiment on Setaria faberi (SETFA) is 2 (2=21-40%). Besides, the “Post-emergence Test ECHCG, percentage damage caused to the plant (five-point scale)” value in experiment [1] is on record as 1 (1=0-20%). Besides, the “Post-emergence Test ZEAMX, percentage damage caused to the plant (five-point scale)” value is given as 0 with Zea mays (ZEAMX) (250 g/Ha (*)) and 1 (1=0-20%) with Zea mays (ZEAMX) (1000 g/ha). The “Post-emergence Test IPOHE, percentage damage caused to the plant (five-point scale)” value in experiment [2] (250 g/Ha (*)) is listed as 0; in experiment [2] (1000 g/ha) it was 1 (1=0-20%). Moreover, the “Post-emergence Test AMAPA, percentage damage caused to the plant (five-point scale)” value in experiment [3] (250 g/Ha (*)) and in experiment [3] (1000 g/ha) was 0 each time. For the same molecule, the figures for the “Post-emergence Test AMARE, percentage damage caused to the plant (five-point scale)” value in experiment [4] (250 g/Ha (*)) and in experiment [4] (1000 g/ha) were 0 and 1 (1=0-20%), respectively.
`CCn1c(Cn2ccc(-c3ccc(C)cc3)n2)cc(=O)c(C(=O)O)c1-c1ccc(Cl)c(Cl)c1` [Compound 196, 2-(3,4-dichlorophenyl)-1-ethyl-4-oxo-6-[[3-(p-tolyl)pyrazol-1-yl]methyl]pyridine-3-carboxylic acid]: the “Post-emergence Test SETFA, percentage damage caused to the plant (five-point scale)” value in the experiment on Setaria faberi (SETFA) came to 0. For the same molecule, in experiment [1], the “Post-emergence Test ECHCG, percentage damage caused to the plant (five-point scale)” value is recorded as 1 (1=0-20%). The entries for the “Post-emergence Test ZEAMX, percentage damage caused to the plant (five-point scale)” value with Zea mays (ZEAMX) (250 g/Ha (*)) and with Zea mays (ZEAMX) (1000 g/ha) were 0 and 1 (1=0-20%), respectively. Also, the “Post-emergence Test IPOHE, percentage damage caused to the plant (five-point scale)” value in experiment [2] (250 g/Ha (*)) and in experiment [2] (1000 g/ha) was 0 throughout. For the same molecule, the “Post-emergence Test AMAPA, percentage damage caused to the plant (five-point scale)” value in experiment [3] (250 g/Ha (*)) and in experiment [3] (1000 g/ha) was 0 each time. The “Post-emergence Test AMARE, percentage damage caused to the plant (five-point scale)” value in experiment [4] (250 g/Ha (*)) and in experiment [4] (1000 g/ha) was 0 each time.
`CCn1c(Cn2ccc(-c3ccc(Cl)cc3)n2)cc(=O)c(C(=O)O)c1-c1ccc(Cl)c(Cl)c1` [Compound 199, 6-[[3-(4-chlorophenyl)pyrazol-1-yl]methyl]-2-(3,4-dichlorophenyl)-1-ethyl-4-oxo-pyridine-3-carboxylic acid]: the “Post-emergence Test SETFA, percentage damage caused to the plant (five-point scale)” value in the experiment on Setaria faberi (SETFA) worked out at 0. In addition, the “Post-emergence Test ECHCG, percentage damage caused to the plant (five-point scale)” value in experiment [1] was 1 (1=0-20%). Moreover, the “Post-emergence Test ZEAMX, percentage damage caused to the plant (five-point scale)” value with Zea mays (ZEAMX) (250 g/Ha (*)) and with Zea mays (ZEAMX) (1000 g/ha) was 0 in each case. In addition, the “Post-emergence Test IPOHE, percentage damage caused to the plant (five-point scale)” value in experiment [2] (250 g/Ha (*)) was 0; in experiment [2] (1000 g/ha), 2 (2=21-40%). Further, the “Post-emergence Test AMAPA, percentage damage caused to the plant (five-point scale)” value in experiment [3] (250 g/Ha (*)) and in experiment [3] (1000 g/ha) was 0 each time. Further, the “Post-emergence Test AMARE, percentage damage caused to the plant (five-point scale)” value in experiment [4] (250 g/Ha (*)) and in experiment [4] (1000 g/ha) was 0 each time.
On to `CCn1c(Cn2ccc(-c3ccco3)n2)cc(=O)c(C(=O)O)c1-c1ccc(Cl)c(Cl)c1` [Compound 200], for which the “Post-emergence Test SETFA, percentage damage caused to the plant (five-point scale)” value with Setaria faberi (SETFA) is listed as 1 (1=0-20%). Moreover, the “Post-emergence Test ECHCG, percentage damage caused to the plant (five-point scale)” value in experiment [1] is 1 (1=0-20%). Also, the “Post-emergence Test ZEAMX, percentage damage caused to the plant (five-point scale)” value with Zea mays (ZEAMX) (250 g/Ha (*)) and in the experiment on Zea mays (ZEAMX) (1000 g/ha) was 1 (1=0-20%) each time. In addition, the “Post-emergence Test IPOHE, percentage damage caused to the plant (five-point scale)” value in experiment [2] (250 g/Ha (*)) is recorded as 0; in experiment [2] (1000 g/ha), 1 (1=0-20%). The “Post-emergence Test AMAPA, percentage damage caused to the plant (five-point scale)” value in experiment [3] (250 g/Ha (*)) and in experiment [3] (1000 g/ha) was 0 throughout. For the same molecule, the “Post-emergence Test AMARE, percentage damage caused to the plant (five-point scale)” value in experiment [4] (250 g/Ha (*)) and in experiment [4] (1000 g/ha) was 0 throughout.

(Values after patent US20250098679A1, “HERBICIDAL PYRIDONE DERIVATIVES” (SYNGENTA CROP PROTECTION AG, priority 2021, published 2025).)
